From patent publication US11630106B2, “Diagnostic test for distinguishing the smoking status of a subject” (PHILIP MORRIS PRODUCTS S.A., priority 2017, dated 2023)
Where two headings read alike, the source gives them in different places.

Tests used:
[1] = cited from earlier work
[2] = mice; cited from earlier work
[3] = 24-hour urine, cited from earlier work
[4] = cited from earlier work; remark: listed apart in the source
[5] = cited from earlier work; for levels of total NNAL: smoking cessation study
[6] = Randomized, controlled, open-label, 3-arm study (CC, SA, SW): total NNAL, CEMA and free cotinine measured in urine; assay type: in vivo, human; settings: for Free Cotinine (ng/mL) SA: SA arm; for concentration at 2 day: human, inhaled
From the text: The study included healthy smokers switching to a heat-not-burn (smoke-free alternative (SW)) product or those observing smoking abstinence (SA), compared with continuing to use CC, for 5 days in confinement and prolonged by 85 days in an ambulatory setting. This was an ad libitum smoking study. Baseline measurements are taken by allowing the subject to smoke their chosen brand of conventional cigarette for 2 days. After this 2 day period, the subject is then elected to continue smoking conventional cigarettes, to switch to a smoke-free alternative or to abstain from smoking. The investigational period then begins. Methods for measuring each of the metabolites are described in Haziza et al. (2017) Data in Brief 10, 283-293.
During the confinement period, compliance to product/regimen allocation (exclusive use of smoke-free alternative and CC in SW and CC arms, respectively, and full abstinence from smoking in the SA arm) was ensured by strict distribution of each tobacco stick/CC when requested by the subject. During the ambulatory period, the subjects randomized to the SW arm were instructed to exclusively use HNB products and subjects randomized to the SA arm were instructed to abstain from smoking.
Furthermore, the data are represented as boxplots in the figures below. The bottom of the box is the first quartile (value below which 25% of the observations lie), the top is the third quartile (value below which 75% of the observations lie) and the middle bar is the median of the observations. The whiskers extend to the minimum observed value and maximum observe value respectively.

[7] = cited from earlier work; remark: listed apart in the source
[8] = intravenous infusion of nicotine in abstinent adult smokers
[9] = consumers of conventional cigarettes
[10] = consumers of smoke-free alternatives
[11] = 15 CPD during 5-day confinement
[12] = 20 CPD during 5-day confinement

CN1C(=O)[C@H](O)C[C@H]1c1cccnc1 (relative stereo) [trans-3′-hydroxycotinine]
total clearance ([1]; in vivo): about 82 mL min-1
half-life [1, 8]: 6.6 h
share of the dose of nicotine accounted for by the metabolite [2]: 40-60%

CC(=O)N[C@@H](CSCCC#N)C(=O)O [CEMA, 2-cyanoethylmercapturic acid]
baseline CEMA, range [3, 9]: 83-115 ng/mg creatinine
baseline CEMA, value in brackets [3, 9]: 98 ng/mg creatinine
average increase at day 5 compared to baseline [3, 9]: 4.2%
change at day 5 compared to baseline, range [3, 9]: −4% to 12%
CEMA at day 5, range [3, 9]: 85-115 ng/mg creatinine
CEMA at day 5, value in brackets [3, 9]: 99.5 ng/mg creatinine
baseline CEMA, range [3, 10]: 85-112 ng/mg creatinine
baseline CEMA, value in brackets [3, 10]: 98 ng/mg creatinine
average decrease at day 5 compared to baseline [3, 10]: −86%
change at day 5 compared to baseline, range [3, 10]: −87% to −85%
CEMA at day 5, range [3, 10]: 11-15 ng/mg creatinine
CEMA at day 5, value in brackets [3, 10]: 13 ng/mg creatinine
baseline CEMA, range ([3]; smoking abstainers): 89-119 ng/mg creatinine
baseline CEMA, value in brackets ([3]; smoking abstainers): 103 ng/mg creatinine
average decrease at day 5 compared to baseline ([3]; smoking abstainers): −86%
decrease at day 5 compared to baseline, range ([3]; smoking abstainers): −88 to −85%
CEMA at day 5, range ([3]; smoking abstainers): 10-15 ng/mg creatinine
CEMA at day 5, value in brackets ([3]; smoking abstainers): 12 ng/mg creatinine
levels of urinary CEMA ([4]; 0 CPD during 5-day confinement): 38.3 μg/24 h
levels of urinary CEMA ([4]; 5 CPD during 5-day confinement): 93.2 μg/24 h
levels of urinary CEMA [4, 11]: 168.0 μg/24 h
levels of urinary CEMA [4, 12]: 218.0 μg/24 h
CEMA excreted (mean±SD) ([4]; non-smokers): 4.6 ± 35 µg/L
CEMA excreted (second value, 'or') ([4]; non-smokers): 1.9 µg/L
urinary excretion of CEMA, range ([4]; non-smokers): below 2 ng/mL
CEMA excreted (mean±SD) ([4]; smokers): 187 ± 181 µg/L
CEMA excreted (second value, 'or') ([4]; smokers): 184 µg/L
urinary excretion of CEMA, range ([4]; smokers): 20 to 205 ng/mL
lowering of CEMA levels in urine ([4]; smoking cessation studies of 5 to 8 days): 7- to 10 fold

C[N+]1([O-])CCC[C@H]1c1cccnc1 (stereo partly shown) [nicotine-1′-N-oxide]
share of the nicotine absorbed by smokers (minor metabolite) ([1]; in vivo): 4-7%

O=NN1CCC[C@H]1c1cccnc1 [NNN]
detectability in the urine of non-smokers [5]: Neither NNAL nor NNN are in principle detectable

CN(CCCC(O)c1cccnc1)N=O (stereo not shown) [Total NNAL, 4-(methylnitrosamino)-1-(3-pyridyl)-1-butanol]
baseline total NNAL, range [3, 9]: 84-131 pg/mg creatinine
baseline total NNAL, value in brackets [3, 9]: 105 pg/mg creatinine
average increase at day 5 compared to baseline [3, 9]: 3.9%
change at day 5 compared to baseline, range [3, 9]: −2.8% to 10.5%
total NNAL at day 5, range [3, 9]: 85-133 pg/mg creatinine
total NNAL at day 5, value in brackets [3, 9]: 107 pg/mg creatinine
baseline total NNAL, range [3, 10]: 95-129 pg/mg creatinine
baseline total NNAL, value in brackets [3, 10]: 111 pg/mg creatinine
average decrease at day 5 compared to baseline [3, 10]: −54%
change at day 5 compared to baseline, range [3, 10]: −57% to −51%
total NNAL at day 5, range [3, 10]: 42-58 pg/mg creatinine
total NNAL at day 5, value in brackets [3, 10]: 49 pg/mg creatinine
baseline total NNAL, range ([3]; smoking abstainers): 94-150 pg/mg creatinine
baseline total NNAL, value in brackets ([3]; smoking abstainers): 119 pg/mg creatinine
average decrease at day 5 compared to baseline ([3]; smoking abstainers): −63.9%
decrease at day 5 compared to baseline, range ([3]; smoking abstainers): −67 to −61%
total NNAL at day 5, range ([3]; smoking abstainers): 31-54 pg/mg creatinine
total NNAL at day 5, value in brackets ([3]; smoking abstainers): 41 pg/mg creatinine
levels of urinary NNAL ([5]; 0 CPD during 5-day confinement): 311 ng/24 h
levels of urinary NNAL ([5]; 5 CPD during 5-day confinement): 422 ng/24 h
levels of urinary NNAL [5, 11]: 549 ng/24 h
levels of urinary NNAL [5, 12]: 624 ng/24 h
levels of total NNAL ([5]; after 28 days): 0.26 nmol/24 h
levels of total NNAL ([5]; after 42 days): 0.2 nmol/24 h
levels of total NNAL ([5]; baseline): 2.70 nmol/24 h
levels of total NNAL ([5]; day 56): 0.13 nmol/24 h
decrease of NNAL levels ([5]; smoking cessation/abstinence studies lasting 3 to 8 days): 3- to 4 fold
detectability in the urine of non-smokers [5]: Neither NNAL nor NNN are in principle detectable
urine levels in non-smokers using other tobacco or nicotine replacement products or exposed to second-hand smoke ([5]; urine): ~0.1 nmol
half-life ([5]; usually measured in the urine, estimated): 17 h
Total NNAL (pg/mL) SW ([6]; SW arm, Day 5, IQR): 17 to 41 pg/mL
total NNAL levels in smoking abstainers ([6]; between day 5 and day 30): 2.5 to 46 pg/mL

CN1C(=O)CC[C@H]1c1cccnc1 [Free Cotinine, cotinine]
cotinine levels indicative of heavy smoker status ([7]; consuming more than 20 cigarettes a day): above 300 ng/mL
cotinine levels indicative of no active smoking ([7]; in vivo): < 10 ng/mL
cotinine levels in active smokers ([7]; saliva): ≥ 100 ng/mL
detectability after smoking abstinence ([7]; urine, saliva or blood): no longer detectable in urine, saliva or blood after about two days of smoking abstinence
cotinine levels in active smokers ([7]; urine): ≥ 500 ng/mL
in vivo half-life ([1]; in vivo): about 20 hours
total clearance ([1]; in vivo): 45 mL/min
half-life [1, 8]: 17.5 h
Free Cotinine (ng/mL) SA ([6]; Day 2, IQR, listed as cotinine): 339 to 959 ng/mL
Free Cotinine (ng/mL) SA ([6]; Day 2, IQR, listed as free cotinine): 128 to 313 ng/mL
concentration at 2 day ([6]; SW arm, Day 2, IQR, read-out: Free Cotinine (ng/mL) SW): 546 to 1160 ng/mL
concentration at 2 day ([6]; day 2, read-out: cotinine levels in conventional cigarette smokers): 459 to 1350 ng/mL
share of the dose of nicotine accounted for by the metabolite [2]: about 15%

CN1CCCC1c1cccnc1 (stereo not shown) [nicotine]
half-life ([1]; in vivo, iv): 2.3 h
share of the inhaled amount metabolized by the liver (first pass effect) ([1]; in vivo): 80-90%
total clearance ([1]; in vivo): about 1200 mL min-1
